{"source": "patent US5266561A", "about": "“Treatment of type 2 diabetes mellitus” (Amylin Pharmaceuticals, Inc., priority 1991, dated 1993)", "key": {"rat islet cells [1]": {"test_system": "rat islet cells", "experiment": "Glucose-stimulated insulin secretion from isolated rat islets of Langerhans", "assay_type": "cell-based", "settings": "glucose 10 mmol/L; for RELATIVE INSULIN SECRETION INHIBITION: reduction from control", "method": "All experiments were performed by known methods used in experimental practice. See, e.g., Lacey P E, and Kostianovsky M, Method for the isolation of intact islets of Langerhans from the rat Dancreas. Diabetes 1967; 16:35-39.\nBriefly, rats were killed, and islets of Langerhans were isolated from their pancreases. Experiments were performed either with freshly isolated islets or after overnight incubation of islets (23 h) in standard culture medium and conditions at 37° C. […] Incubation of islets for these experiments was carried out in standard Krebs-Heinsleit buffer, and it was verified that the addition of the 1.0 mmol/L citrate buffer had no effect on the pH of the incubation medium. Stimulation of islets was carried out at the standard stimulatory glucose concentration of 10 mmol/L.\nProduction of insulin is expressed as μU/islet/h. All experiments were performed with five replicates per point. The integrity of the islet response was assessed by comparing the responses after stimulation of different aliquots of islets by two and ten mmol/L glucose, respectively, and the strength of the inhibitory response was judged against that induced by 1 μg/ml (650 nmol/L) somatostatin. […] See Arimura A. Biomed res 1981; 2:233-257. […] See Petterson M, Ahren B, Bottcher G, Sundler F, Endocrinology 1986; 119:865-869.\nThe results are shown in TABLE 5 below and all results are expressed as ± standard error of the mean (s.e.m.). The significance of differences between the means of groups is assessed by the t-test. The result of stimulation by 10 mmol/L glucose is compared with the results of stimulation at 2 mmol/L glucose. In all other experimental conditions, the significance of the inhibitory effect is measured against the effect of 10 mmol/L glucose alone."}, "rat islet cells [2]": {"test_system": "rat islet cells", "settings": "literature statement; cited from earlier work"}, "[3]": {"molecular_target": "T1, insulin receptor on red blood cells", "T1 construct": "endogenous in cells; host or cells: red blood cells", "experiment": "Displacement of insulin from its receptor on red blood cells", "assay_type": "binding"}}, "note": "Where no end group is shown, it is not given here."}
{"molecule": "C[C@H](N)C(=O)NCC(=O)N[C@H]1CSSC[C@@H](C(=O)O)NC(=O)[C@H](CO)NC(=O)[C@H]([C@@H](C)O)NC(=O)[C@H](Cc2ccccc2)NC(=O)[C@H]([C@@H](C)O)NC(=O)[C@H](CCCCN)NC(=O)[C@H](Cc2c[nH]c3ccccc23)NC(=O)[C@H](Cc2ccccc2)NC(=O)[C@H](Cc2ccccc2)NC(=O)[C@H](CC(N)=O)NC(=O)[C@H](CCCCN)NC1=O", "note": "[Somatostatin, reference compound]", "values": [{"measurement": "INSULIN PRODUCTION Mean value", "setting": "rat islet cells [1]; 650 nmol/L", "value": 44, "unit": "μU/islet/hr"}, {"measurement": "RELATIVE INSULIN SECRETION INHIBITION", "setting": "rat islet cells [1]; 650 nmol/L", "value": 45, "unit": "%"}, {"measurement": "inhibition of the insulin secretory response of islet B-cells to glucose", "setting": "rat islet cells [2]", "value": "known, potent inhibitor"}]}
{"molecule": "CGRP 27-37 (FVPTNVGSKAF; ends and bridges not checked; UniProt P06881 109-119, looked up, fragment)", "values": [{"measurement": "INSULIN PRODUCTION Mean value", "setting": "rat islet cells [1]; 10 nmol/L", "value": 36, "unit": "μU/islet/hr"}, {"measurement": "RELATIVE INSULIN SECRETION INHIBITION", "setting": "rat islet cells [1]; 10 nmol/L", "value": 55, "unit": "%"}, {"measurement": "INSULIN PRODUCTION Mean value", "setting": "rat islet cells [1]; 100 nmol/L", "value": 36, "unit": "μU/islet/hr"}, {"measurement": "RELATIVE INSULIN SECRETION INHIBITION", "setting": "rat islet cells [1]; 100 nmol/L", "value": 55, "unit": "%"}, {"measurement": "INSULIN PRODUCTION Mean value", "setting": "rat islet cells [1]; 1000 nmol/L", "value": 46, "unit": "μU/islet/hr"}, {"measurement": "RELATIVE INSULIN SECRETION INHIBITION", "setting": "rat islet cells [1]; 1000 nmol/L", "value": 42, "unit": "%"}]}
{"molecule": "amylin: 37-residue peptide from pancreatic amyloid of Type 2 diabetics; source (synthetic or native) not stated at these places (KCNTATCATQRLANFLVHSSNNFGAILSSTNVGSNTY; Islet amyloid polypeptide; UniProt P10997 34-70, looked up)", "values": [{"measurement": "displacing insulin from its receptor on red blood cells", "setting": "[3]", "value": "not capable of significantly displacing insulin"}]}
